Patent publication US20160369258A1, “RESTRICTING NUCLEAR PROTEIN TO SPECIFIC PHASES OF THE CELL CYCLE” (UNIVERSITY OF WASHINGTON, priority 2014, published 2016)
Peptide text beside a SMILES is read from it. * marks the point of attachment. Cbz = O=C(OCc1ccccc1)*

How the values were obtained:
Ramos B cells = test: Flow cytometry of cell cycle profile and fluorescent signal; format: cell-based, human; settings: up to 4 hr of culture; Ramos AID-mCherry transductants
Experimental: To determine cell cycle distribution, cells were fixed, permeabilized with 0.5% Triton X-100, stained with DAPI (2 μg/ml) and analyzed by FACS.

AID-mCherry = test: HCS microscopy of AID-mCherry subcellular distribution after LMB / MG132 treatment; format: cell-based, human; settings: for cytoplasmic AID-mCherry signal, response to treatment / nuclear AID-mCherry signal, increase relative to untreated cells: Ramos AID-mCherry transductants, LMB 50 ng/ml, MG132 50 μM; for nuclear AID-mCherry signal, increase relative to untreated cells: 0-4 hr
Experimental: We analyzed subcellular distribution of AID in the human B cell line, Ramos, transduced with a lentiviral construct expressing human AID fused to the mCherry fluorescent protein at the C-terminus. Ramos B cells express endogenous AID and actively diversify their Ig genes, so the pathways that regulate and respond to damage by AID are intact. Cells were analyzed by high content screening (HCS) microscopy (43), a […] approach that automatically quantifies signals per unit area (pixels) in each compartment of each cell (FIG. 1A). […] The cytoplasmic signal was unaffected by MG132 treatment, but diminished upon treatment with LMB or LMB+MG132, paralleling the increase in nuclear signal.
The human Burkitt lymphoma cell line, Ramos, was cultured in supplemented RPMI 1640 (Gibco), which contained 10% FBS, 2 mM L-glutamine, penicillin/streptomycin, 1× non-essential amino acids (Gibco), 1 mM sodium pyruvate, and 10 mM HEPES. Lentiviral transductions used 2×10^5 cells cultured in medium containing 8 μg/ml of polybrene. Following transduction, cells were cultured for 3-4 days and these recent transductants then sorted for mCherry+ to enrich for transduced cells, typically constituting 0.1-10% of the population. Cells were treated with leptomycin B (LMB; LC Laboratories) at 50 ng/ml and MG132 (Z-Leu-Leu-Leu-aldehyde; Sigma-Aldrich) at 50 μM. Viable cells were counted after trypan blue staining. Cell viability was confirmed by CellTiter-Glo® Luminescent Cell Viability Assay (Promega).
Cells were fixed in 3.7% formaldehyde at a density of 2×10^6 cells/ml and stained with whole cell stain (HCS CellMask, Invitrogen) and DAPI (0.2 μg/ml). Fixed cells were then washed, resuspended in PBS and spun down in a 96-well μclear microplate (Greiner Bio One) for imaging. Cells were imaged by Thermo Scientific ArrayScan VTI HCS reader, analyzing 3000-6000 cells in each treatment group. Cells with very low or very high mCherry signals were eliminated, gating based on the mock transduction control (low) and eliminating cells with signals more than 5 SD from the mean (high). The HCS Colocalization BioApplication protocol was used to determine nuclear and whole cell boundaries in individual cells as defined by DAPI and HCS CellMask, respectively, thereby defining the cytoplasmic region as the region between nuclear and whole cell boundaries. The average signal in the nuclear and cytoplasmic compartments was determined in individual cells by measuring the total intensity of mCherry signal divided by area within each compartment. The ratio of nuclear to cytoplasmic signal (N/C) was calculated as the ratio of the average signals of nuclear and cytoplasmic mCherry.
G1, S, and G2/M phase cells were distinguished by ranking DNA content as determined by total DAPI signal, and specific fractions of the population assigned to G1, S and G2/M phases (FIG. 16A). HCS results were expressed in terms of average signal, to ensure independence of cell size, which increases during cell cycle (FIG. 16).

| Compound | effect of treatment on cell cycle (Ramos B cells) | cytoplasmic AID-mCherry signal, response to treatment (AID-mCherry) | nuclear AID-mCherry signal, increase relative to untreated cells (AID-mCherry) | drop of cytoplasmic AID-mCherry signal (AID-mCherry; all stages of cell cycle (G1, S, G2/M)) [%] | N/C ratio of AID-mCherry signal (AID-mCherry; representative cell, 0.5 hr LMB (untreated 0.80)) | effect on nuclear or cytoplasmic AID-mCherry signals (AID-mCherry; any phase of cell cycle) |
| --- | --- | --- | --- | --- | --- | --- |
| CCC(=C/[C@H](C)C/C=C/C(C)=C/[C@@H](C)C(=O)[C@@H](C)[C@H](O)[C@@H](C)C/C(C)=C/C(=O)O)/C=C/[C@@H]1OC(=O)C=C[C@@H]1C [LMB, leptomycin B] | not perturbed significantly | diminished | 1.5 fold | 50 | 1.34 |  |
| CC(C)C[C@@H](C=O)NC(=O)[C@H](CC(C)C)NC(=O)[C@H](CC(C)C)NC(=O)OCc1ccccc1 [MG132, Z-Leu-Leu-Leu-aldehyde] (Cbz-Leu-Leu-Leu-aldehyde) | not perturbed significantly | unaffected | unaffected |  |  | little effect |
